Laboratory results published in patent US20230035127A1, “CULTURE AND DIFFERENTIATION OF PLURIPOTENT STEM CELLS” (University of Maryland, College Park, priority 2021, published 2023).
“Also recorded” adds a separate entry of the source.

Columns and labels:
IMR90-1 human iPSCs = assay: Flow cytometry of IMR90-1 cardiac spheroids; assay type: cell-based; details: day 12.5
Method: For flow cytometry, the eiPSC spheroids were collected on day 0 and the cardiac spheroids were collected on days 1.5, 2.5, 12.5, 15. The spheroids were dissociated to single cells by 0.25% trypsin for 5 min at 37° C. and then fixed with 75% ethanol at 4° C. overnight. The cells were permeabilized with 0.05% Triton X-100 for 3 min and then rinsed with 1×PBS twice. The cell numbers were adjusted to 1×10^6 cells/tube in 700 μL of saline for each marker. These cells were incubated with primary antibodies including OCT-4 (1:500 dilution, Cell Signaling Technologies), NANOG (1:500 dilution, Cell Signaling Technologies), SSEA-4 (1:500 dilution, Cell Signaling Technologies), BRACHYURY (1:500; Santa Cruz Biotechnology), NKX2.5 (1:500; Santa Cruz Biotechnology), cTnT (1:500 dilution, Cell Signaling Technologies), cTnI (1:500 dilution, Cell Signaling Technologies), α-ACTININ (1:500 dilution; Santa Cruz Biotechnology), MUSASHI-1 (1:500; R&D Systems), and TUJ-1 (1:500; R&D Systems) at 4° C. overnight. Subsequently, the samples were rinsed with 1×PBS thrice before incubation with corresponding secondary antibodies: goat anti-mouse IgG FITC and goat anti-rabbit IgG PE, respectively (1:1000; Invitrogen) for 1 h at RT. The samples were then rinsed with 1×PBS thrice before flow cytometry. The negative controls were the cells incubated with respective primary antibodies as aforementioned (no incubation with a secondary antibody).

human eiPSCs = assay: RNA sequencing of eiPSC spheroids and cardiac spheroids; assay type: cell-based; details: MO vs. MT (1 vs 10 μM RI), day 13.5
From the text: To investigate the mechanisms for the different outcomes when using different RI concentrations for culturing the eiPSC spheroids in 3D for cardiac differentiation, samples at various stages of the 3D culture and differentiation shown in FIG. 1 were collected and analyzed by RNA-sequencing (RNA-seq). The sample groups and their abbreviations are summarized in Table 1 including undifferentiated eiPSCs on day −2.5 (U), cardiac commitment on day 2.5 (C), cardiac maturation on day 13.5 (M), together with 2D monolayer colonies on day −4 (2D) as a common 2D undifferentiated control for both the 1 (one: […]) and 10 (ten: T) μM RI 3D culture. The raw data of RAN-seq were of high quality with an error rate of no more than 0.03%. […] Afterward, the gene expression level was calculated by the number of mapped reads, also known as fragments per kilobase of transcript per million mapped reads (FPKM). […]
For RNA sequencing (RNA-Seq), total RNA was extracted from the eiPSC clumps from 2D culture on day −4 (termed as 2D) and spheroids collected on day −2.5 after 1.5 days in the 3D culture (termed as UO and UT for 1 μM and 10 μM RI conditions, respectively), day 2.5 (termed as CO and CT), and day 13.5 (termed as MO and MT). […] The RNA concentration in the samples was measured with Nanodrop and the integrity and quality of RNAs in the samples were confirmed with the Nano RNA Bioanalyzer. […]

eiPSCs = assay: Survival/yield of PSCs in 3D suspension culture; assay type: cell-based, human; details: for improvement of cell yield (number of viable cells): 3D culture
Method: To obtain 3D iPSC spheroids, the iPSC colonies under 2D culture at ˜80% confluence were treated with Versene for 2 min, rinsed with PBS, and further detached from the substrate by gentle pipetting. The detached iPSCs were re-suspended in mTeSR1 with Rock inhibitor (Y27632) at 0, 1, 5, or 10 μM. Afterward, the medium was supplemented with 0.35% (v/v) methylcellulose. The cell suspension (12 ml) containing ˜4×10^6 cells was pushed through a cell strainer with 100 μm mesh size. Later, the suspension of iPSC clumps was transferred into a petri dish (diameter: 10 cm) for culture in a humidified incubator at 37° C. and 5% CO2 for 2 days, during which the 2D iPSC clumps grew into 3D iPSC spheroids. Then, the medium was changed to mTeSR1 (supplemented with 0.35% methylcellulose) with no rock inhibitor, to further culture for 2 days before cardiac differentiation. To determine the number of cells per eiPSC spheroid, roughly equal numbers of the spheroids from either the 1 or 10 μM RI group were pooled together and trypsinized to dissociate the cells. The dissociated cells were then resuspended in 1.4 ml of the aforementioned iPSC maintenance medium and the cell number was counted using a hemocytometer. Three independent runs with 282, 260, and 256 spheroids for the 1 μM RI group and 273, 298, and 286 spheroids for the 10 μM RI group were conducted.

C[C@@H](N)[C@H]1CC[C@H](C(=O)Nc2ccncc2)CC1.Cl.Cl (relative stereo) [RI, (+)-(R)-trans-4-(1-aminoethyl)-N-(4-pyridyl) cyclo-hexanecarboxamide dihydrochloride]
cells positive for MUSASHI (IMR90-1 human iPSCs; 1 μM RI): negligible | cells positive for cTnT (IMR90-1 human iPSCs; 1 μM RI): 91% | cells positive for MUSASHI (IMR90-1 human iPSCs; 10 μM RI): ~20% | cells positive for cTnT (IMR90-1 human iPSCs; 10 μM RI): 32% | top 2 significantly down-regulated differentially expressed gene groups (GO enrichment) (human eiPSCs): enriched to the forebrain and axon development | top 18 significantly upregulated differentially expressed gene groups (GO enrichment) (human eiPSCs): enriched to heart development, muscle system process, and the development of Z-disc and I band | cell survival and yield (eiPSCs; 1 μM RI compared to 0 μM RI control, day 0, dihydrochloride): significantly more; also recorded: significantly increases | improvement of cell yield (number of viable cells) (eiPSCs; 10 μM RI compared to 0 μM RI): about 3 times | improvement of cell yield (number of viable cells) (eiPSCs; 10 μM RI compared to 1 μM RI): ~2 times
